Paper PMC6804443 (Acta Pharmaceutica Sinica. B, 2019)
One block for each compound: values may come before it.

Tests used:
ALDH = format: in vitro ADME; details: human, pooled human liver cytosol
OATP1B3 [1] = target: T1, OATP1B3 (Homo sapiens, UniProt Q9NPD5); details: IC50, OATP1B3 [X10], mean ± SD (n = 3)
T1 sequence (Q9NPD5 1-702): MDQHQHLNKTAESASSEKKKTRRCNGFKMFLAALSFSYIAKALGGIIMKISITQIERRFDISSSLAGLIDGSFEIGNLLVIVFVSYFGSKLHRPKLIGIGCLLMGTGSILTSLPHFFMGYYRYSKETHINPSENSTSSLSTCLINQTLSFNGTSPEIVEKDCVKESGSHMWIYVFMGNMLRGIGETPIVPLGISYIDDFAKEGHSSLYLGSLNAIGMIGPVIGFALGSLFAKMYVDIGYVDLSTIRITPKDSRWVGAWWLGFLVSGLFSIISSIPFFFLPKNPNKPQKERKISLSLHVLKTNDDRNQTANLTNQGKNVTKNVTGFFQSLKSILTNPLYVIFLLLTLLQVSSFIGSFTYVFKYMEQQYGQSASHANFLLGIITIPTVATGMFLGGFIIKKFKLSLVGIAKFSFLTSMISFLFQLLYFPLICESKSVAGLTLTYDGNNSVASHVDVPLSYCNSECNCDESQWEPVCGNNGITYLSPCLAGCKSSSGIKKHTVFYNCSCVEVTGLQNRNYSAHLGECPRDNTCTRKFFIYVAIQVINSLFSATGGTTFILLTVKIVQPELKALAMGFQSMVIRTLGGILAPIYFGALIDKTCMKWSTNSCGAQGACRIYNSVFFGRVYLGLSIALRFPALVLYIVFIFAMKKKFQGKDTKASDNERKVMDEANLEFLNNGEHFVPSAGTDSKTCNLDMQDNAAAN

OATP1B3 [2] = target: T1, OATP1B3; details: antibiotic as perpetrator, salvianolic acid B (X10) as victim; (Cmax × fu-p × R)/IC50
OATP1B3 [3] = target: T1, OATP1B3; assay: in vitro
UGT2B15 = target: T2, UGT2B15 (Homo sapiens, UniProt P54855); format: in vitro ADME; details: for Inhibition DDI index, UGT2B15: antibiotic as perpetrator, senkyunolide I (X5) as victim, (Cmax × fu-p × R)/IC50
T2 sequence (P54855 24-530): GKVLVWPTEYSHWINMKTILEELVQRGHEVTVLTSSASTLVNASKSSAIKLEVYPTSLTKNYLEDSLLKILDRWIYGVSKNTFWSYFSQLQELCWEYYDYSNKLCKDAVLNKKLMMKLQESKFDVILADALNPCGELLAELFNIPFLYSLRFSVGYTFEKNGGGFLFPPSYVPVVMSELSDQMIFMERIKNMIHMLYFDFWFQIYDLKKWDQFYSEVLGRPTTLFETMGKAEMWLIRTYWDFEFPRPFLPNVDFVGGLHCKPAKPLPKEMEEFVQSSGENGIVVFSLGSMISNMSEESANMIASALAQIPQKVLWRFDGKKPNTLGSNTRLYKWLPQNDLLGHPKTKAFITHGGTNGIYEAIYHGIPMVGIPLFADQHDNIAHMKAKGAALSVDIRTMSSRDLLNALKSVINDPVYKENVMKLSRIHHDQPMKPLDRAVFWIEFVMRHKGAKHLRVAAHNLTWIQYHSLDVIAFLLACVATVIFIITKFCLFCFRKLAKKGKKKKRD

OAT2 = target: T3, OAT2 (Homo sapiens, UniProt Q9Y694); assay: OAT2 inhibition by antibiotics, transfected HEK293 cells, tanshinol as substrate; format: in vitro ADME
T3 sequence (Q9Y694 1-546 isoform Q9Y694-2): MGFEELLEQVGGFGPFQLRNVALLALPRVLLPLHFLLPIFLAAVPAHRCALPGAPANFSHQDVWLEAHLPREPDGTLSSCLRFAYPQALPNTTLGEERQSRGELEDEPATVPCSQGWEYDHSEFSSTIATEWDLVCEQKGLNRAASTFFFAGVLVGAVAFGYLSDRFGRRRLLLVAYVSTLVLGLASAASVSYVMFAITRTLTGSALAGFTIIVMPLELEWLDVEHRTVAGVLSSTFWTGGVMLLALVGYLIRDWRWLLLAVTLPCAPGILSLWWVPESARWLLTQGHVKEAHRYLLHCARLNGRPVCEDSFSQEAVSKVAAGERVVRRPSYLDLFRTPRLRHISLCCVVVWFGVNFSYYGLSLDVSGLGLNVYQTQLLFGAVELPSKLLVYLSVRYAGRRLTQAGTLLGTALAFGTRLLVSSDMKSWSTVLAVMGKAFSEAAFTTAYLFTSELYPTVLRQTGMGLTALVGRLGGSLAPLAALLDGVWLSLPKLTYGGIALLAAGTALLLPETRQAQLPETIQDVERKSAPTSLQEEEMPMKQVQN

OAT1 = target: T4, OAT1 (Homo sapiens, UniProt Q4U2R8); assay: OAT1 inhibition by antibiotics, transfected HEK293 cells, tanshinol as substrate
T4 sequence (Q4U2R8 1-563): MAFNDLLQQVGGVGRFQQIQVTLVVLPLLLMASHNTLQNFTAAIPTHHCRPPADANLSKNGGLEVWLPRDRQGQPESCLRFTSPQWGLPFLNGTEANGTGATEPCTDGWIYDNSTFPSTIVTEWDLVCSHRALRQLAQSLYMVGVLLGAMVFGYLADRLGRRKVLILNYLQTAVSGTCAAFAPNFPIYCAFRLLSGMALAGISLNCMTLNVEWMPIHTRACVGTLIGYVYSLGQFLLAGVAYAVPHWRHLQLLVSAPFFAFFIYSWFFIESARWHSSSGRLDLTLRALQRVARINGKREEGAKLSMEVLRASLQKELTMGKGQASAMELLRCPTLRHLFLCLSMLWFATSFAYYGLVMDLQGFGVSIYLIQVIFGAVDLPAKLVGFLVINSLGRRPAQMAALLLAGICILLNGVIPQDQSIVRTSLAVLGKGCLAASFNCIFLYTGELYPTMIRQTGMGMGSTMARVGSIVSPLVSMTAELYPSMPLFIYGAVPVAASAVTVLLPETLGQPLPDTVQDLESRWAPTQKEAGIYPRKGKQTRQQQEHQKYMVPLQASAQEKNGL

[4] = antibiotic as perpetrator, tanshinol (X8) as victim, (Cmax × fu-p × R)/IC50

SMILES: C[C@@H](O)[C@H]1C(=O)N2C(C(=O)O)=C(SCCN=CN)C[C@H]12 [A1, imipenem]
IC50 (ALDH): 120 ± 30 µM | inhibition at 1000 μmol/L (ALDH): 56 to 88%

SMILES: C[C@@H](O)[C@H]1C(=O)N2C(C(=O)O)=C(S[C@@H]3CN[C@H](C(=O)N(C)C)C3)[C@H](C)[C@H]12 [A2, meropenem]
IC50 (ALDH): 164 ± 39 µM | inhibition at 1000 μmol/L (ALDH): 56 to 88%

SMILES: CO/N=C(\C(=O)N[C@@H]1C(=O)N2C(C(=O)O)=C(CSc3nc(=O)c(=O)[nH]n3C)CS[C@H]12)c1csc(N)n1 [A6, ceftriaxone]
IC50 (OATP1B3 [1]): 201 ± 48 µM | Inhibition DDI index, OATP1B3 (OATP1B3 [2]): 0.68 | inhibition at 1000 μmol/L (OATP1B3 [3]): 64 to 88%

SMILES: CC(C)(O/N=C(\C(=O)N[C@@H]1C(=O)N2C(C(=O)[O-])=C(C[n+]3ccccc3)CS[C@H]12)c1csc(N)n1)C(=O)O [A7, ceftazidime]
IC50 (ALDH): 1030 ± 155 µM | inhibition at 5000 μmol/L (ALDH): 56 to 88%

The next lines start with the values.

IC50 (UGT2B15): 971 ± 130 µM | Inhibition DDI index, UGT2B15 (UGT2B15): 0.12 | inhibition at 1000 μmol/L (UGT2B15; human, cDNA-expressed UGT2B15): 60 to 88% | IC50 (OATP1B3 [1]): 27 ± 9 µM | Inhibition DDI index, OATP1B3 (OATP1B3 [2]): 1.72–4.43 | inhibition at 1000 μmol/L (OATP1B3 [3]): 64 to 88%
SMILES: CCN1CCN(C(=O)N[C@@H](C(=O)N[C@@H]2C(=O)N3C(C(=O)O)=C(CSc4nnnn4C)CS[C@H]23)c2ccc(O)cc2)C(=O)C1=O [A8, cefoperazone]

IC50 (OATP1B3 [1]): 68 ± 20 µM | Inhibition DDI index, OATP1B3 (OATP1B3 [2]): 1.81–2.14 | inhibition at 1000 μmol/L (OATP1B3 [3]): 64 to 88%
SMILES: CO/N=C(\C(=O)N[C@@H]1C(=O)N2C(C(=O)O)=C(COC(C)=O)CS[C@H]12)c1csc(N)n1 [A9, cefotaxime]

IC50 (UGT2B15): 797 ± 142 µM | Inhibition DDI index, UGT2B15 (UGT2B15): 0.56 | inhibition at 5000 μmol/L (UGT2B15; human, cDNA-expressed UGT2B15): 60 to 88% | IC50 (OAT2): 1210 ± 434 µM | inhibition at 5000 µM (OAT2; HEK293, read-out: Inhibition of OAT2): 60 to 84% | Inhibition DDI index, OAT2 (OAT2; [4]): 0.37 | IC50 (OAT1): 591 ± 154 µM | Inhibition DDI index, OAT1 (OAT1; [4]): 0.75 | inhibition at 5000 μmol/L (OAT1; human): 63 to 88%
SMILES: CCN1CCN(C(=O)N[C@@H](C(=O)N[C@@H]2C(=O)N3[C@@H]2SC(C)(C)[C@@H]3C(=O)O)c2ccccc2)C(=O)C1=O [A13, piperacillin]

IC50 (ALDH): 308 ± 68 µM | IC50 (OATP1B3 [1]): 56 ± 21 µM | inhibition at 5000 μmol/L (OATP1B3 [3]): > 90%
SMILES: CC1(C)S[C@@H]2[C@H](NC(=O)Cc3ccccc3)C(=O)N2[C@H]1C(=O)O [A15, penicillin G]

IC50 (ALDH): 2080 ± 283 µM | inhibition at 5000 μmol/L (ALDH): 56 to 88% | IC50 (OATP1B3 [1]): 42 ± 18 µM | Inhibition DDI index, OATP1B3 (OATP1B3 [2]): 8.55 | inhibition at 5000 μmol/L (OATP1B3 [3]): > 90%
SMILES: CC1(C)S[C@@H]2[C@H](NC(=O)[C@H](N)c3ccccc3)C(=O)N2[C@H]1C(=O)O [A16, ampicillin]
